Data: patent US20220040150A1, “I[…] ADMI[…] FOR DMT-ASSISTED PSYCHOTHERAPY” (Universitatsspital Basel, priority 2020, published 2022)
Entries after “also recorded” stand apart in the source; their conditions may differ. Like-named read-outs stand apart in the source and are kept apart here.

Columns and labels:
[1] = molecular target: serotonin 5-HT2A receptor (Homo sapiens, UniProt P28223); conditions: similar to LSD and psilocybin; cited from earlier work
[2] = cited from earlier work
[3] = molecular target: T1, monoamine oxidase (MAO) A (Homo sapiens, UniProt P21397); conditions: cited from earlier work
T1 sequence (P21397 1-527): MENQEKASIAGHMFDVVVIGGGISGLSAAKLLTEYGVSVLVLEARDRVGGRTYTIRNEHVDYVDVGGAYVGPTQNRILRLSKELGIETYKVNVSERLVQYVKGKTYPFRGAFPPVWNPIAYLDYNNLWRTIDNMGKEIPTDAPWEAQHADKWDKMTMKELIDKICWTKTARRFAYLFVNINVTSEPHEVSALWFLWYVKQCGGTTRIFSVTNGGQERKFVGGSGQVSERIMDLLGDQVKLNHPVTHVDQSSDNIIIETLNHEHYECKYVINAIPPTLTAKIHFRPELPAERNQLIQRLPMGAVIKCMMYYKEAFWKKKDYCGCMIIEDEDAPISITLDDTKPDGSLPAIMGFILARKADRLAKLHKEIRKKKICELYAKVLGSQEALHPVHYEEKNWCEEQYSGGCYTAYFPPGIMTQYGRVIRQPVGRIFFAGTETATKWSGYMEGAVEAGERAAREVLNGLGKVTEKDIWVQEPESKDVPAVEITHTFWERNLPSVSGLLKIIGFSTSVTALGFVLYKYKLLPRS

[4] = system: healthy subjects with previous hallucinogen experience; conditions: cited from earlier work
[5] = 2 minutes after iv bolus of 14 mg (approximately 0.2 mg/kg); cited from earlier work
5-HT1 receptor = molecular target: T2, 5-HT1 receptor (Homo sapiens, UniProt P08908); conditions: in contrast to psilocybin; cited from earlier work
T2 sequence (P08908 1-422): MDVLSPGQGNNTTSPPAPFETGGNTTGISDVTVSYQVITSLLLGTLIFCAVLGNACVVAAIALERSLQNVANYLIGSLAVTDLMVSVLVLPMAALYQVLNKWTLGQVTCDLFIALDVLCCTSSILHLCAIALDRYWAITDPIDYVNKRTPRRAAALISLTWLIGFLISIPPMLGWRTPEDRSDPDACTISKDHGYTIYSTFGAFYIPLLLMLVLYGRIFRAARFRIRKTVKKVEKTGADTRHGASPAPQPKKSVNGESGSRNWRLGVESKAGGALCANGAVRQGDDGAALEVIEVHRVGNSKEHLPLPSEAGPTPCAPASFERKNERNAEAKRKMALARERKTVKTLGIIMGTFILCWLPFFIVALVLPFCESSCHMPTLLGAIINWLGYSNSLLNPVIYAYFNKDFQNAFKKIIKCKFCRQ

5-HT1A receptor = molecular target: T3, 5-HT1A receptor (Homo sapiens, UniProt P08908); conditions: sub-hallucinogenic dose of 0.1 mg/kg DMT, twelve subjects; cited from earlier work
T3 construct: host or cells: human volunteers (in vivo)
T3 sequence (P08908 1-422): T2 sequence (P08908 1-422)

[6] = system: healthy subjects with previous hallucinogen experience; conditions: cited from earlier work; remark: listed apart in the source
healthy subjects = experiment: Example 1 clinical study: adverse effects and list of complaints
Procedure: Identical placebo (saline) was prepared.
Adverse effects and list of complaints: The list of complaints (LC) consists of 66 items offering a global score measuring physical and general discomfort (Zerssen, 1976). The LC list is administered before and at the end of the session with reference to complaints throughout the entire session.

Chain of serotonin 5-HT2A receptor (P28223 whole entry): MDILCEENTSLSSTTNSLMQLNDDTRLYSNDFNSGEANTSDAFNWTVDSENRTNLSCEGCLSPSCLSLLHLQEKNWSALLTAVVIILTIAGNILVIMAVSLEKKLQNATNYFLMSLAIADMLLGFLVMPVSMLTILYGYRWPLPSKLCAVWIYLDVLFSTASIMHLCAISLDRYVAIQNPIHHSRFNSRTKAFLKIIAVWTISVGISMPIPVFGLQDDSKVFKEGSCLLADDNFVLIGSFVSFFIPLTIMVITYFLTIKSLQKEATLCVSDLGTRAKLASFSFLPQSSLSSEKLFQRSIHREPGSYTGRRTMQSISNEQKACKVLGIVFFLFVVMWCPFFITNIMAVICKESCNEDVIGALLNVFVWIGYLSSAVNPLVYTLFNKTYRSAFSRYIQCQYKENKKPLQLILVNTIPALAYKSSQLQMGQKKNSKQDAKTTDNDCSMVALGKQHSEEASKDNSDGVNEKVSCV

CN(C)CCc1c[nH]c2ccccc12 [DMT, N,N-dimethyltryptamine]
interaction with the serotonin 5-HT2A receptor [1]: interacts
duration of action ([2]; administered parenterally): less than 20 min
activity when administered orally ([2]; oral, without MAO inhibition): inactive
metabolism by monoamine oxidase (MAO) A [3]: rapidly metabolized
Average heart rate ([4]; at 2 minutes): 100 beats/min
mean arterial blood pressure ([4]; at 2 minutes): 108 mm Hg
blood pressure, heart rate, pupil size, body core temperature, blood levels of ACTH, cortisol, PRL, β-endorphin and growth hormone ([4]; iv bolus): increased
DMT blood concentrations [5]: approximately 56 ng/mL
affinity to the 5-HT1 receptor (5-HT1 receptor): greater affinity
enhancement of DMT effects by pindolol pre-treatment (5-HT1A receptor): two to three times
threshold dose for hallucinogenic effects ([6]; iv bolus): 0.2 mg/kg
time to peak of effects after injection ([6]; iv bolus): ≤ 2 min
time within which effects resolved ([6]; iv bolus): 20 to 30 min
hallucinogenic effect ([6]; lower doses (0.05, 0.1 mg/kg) iv bolus): not hallucinogenic
hallucinogenic effect ([6]; two higher doses of 0.2 and 0.4 mg/kg iv bolus): fully hallucinogenic
relevant adverse effects (healthy subjects; Example 1): did not result in relevant adverse effects
safety of administration (healthy subjects; Example 1): safe
highest dose still well-tolerated by the study population (healthy subjects; perfusion rate, Example 1): 1 mg of DMT/min
reported complaints (healthy subjects; perfusion without bolus, two subjects): lack of appetite; also recorded: tiredness, palpitations, cold feet, and dry mouth
